From ChEMBL document CHEMBL5620430, “Design, synthesis and biological evaluation of indazole derivatives as selective covalent inhibitors of FGFR4 in wild-type and gatekeeper mutants” (Eur J Med Chem, 2023)
Active and inactive are the calls of the source. The rule behind the calls is not given here.

How the values were obtained:
[1] = molecular target: Fibroblast growth factor receptor 1 (Homo sapiens, UniProt P11362)
Description: Inhibition of FGFR1 (unknown origin)

[2] = molecular target: Fibroblast growth factor receptor 4 (Homo sapiens, UniProt P22455)
Fibroblast growth factor receptor 4, sequence (P22455 whole entry): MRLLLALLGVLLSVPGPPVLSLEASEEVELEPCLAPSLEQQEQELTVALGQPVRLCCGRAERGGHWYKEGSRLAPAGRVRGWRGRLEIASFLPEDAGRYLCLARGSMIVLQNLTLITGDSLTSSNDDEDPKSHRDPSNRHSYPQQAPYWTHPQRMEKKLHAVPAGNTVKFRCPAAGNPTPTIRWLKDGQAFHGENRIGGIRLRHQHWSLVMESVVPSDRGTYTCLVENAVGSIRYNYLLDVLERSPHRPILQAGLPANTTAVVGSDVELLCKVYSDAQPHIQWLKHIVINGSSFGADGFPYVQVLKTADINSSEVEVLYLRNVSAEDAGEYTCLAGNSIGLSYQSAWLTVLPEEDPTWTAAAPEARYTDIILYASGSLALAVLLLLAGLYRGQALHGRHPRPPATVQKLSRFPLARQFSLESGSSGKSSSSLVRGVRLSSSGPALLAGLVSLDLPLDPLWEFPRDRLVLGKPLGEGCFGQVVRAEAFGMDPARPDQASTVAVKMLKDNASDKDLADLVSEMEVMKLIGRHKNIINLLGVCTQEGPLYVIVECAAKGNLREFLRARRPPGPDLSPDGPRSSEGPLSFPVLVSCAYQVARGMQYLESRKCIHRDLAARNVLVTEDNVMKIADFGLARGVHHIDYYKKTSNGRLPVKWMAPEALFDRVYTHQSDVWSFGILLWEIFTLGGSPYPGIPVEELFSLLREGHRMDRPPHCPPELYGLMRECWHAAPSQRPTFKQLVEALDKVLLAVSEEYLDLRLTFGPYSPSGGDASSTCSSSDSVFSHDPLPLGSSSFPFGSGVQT
Description: Inhibition of FGFR4 (445 to 753 residues) (unknown origin) expressed in Escherichia coli

Huh-7 [3] = assay: cells; conditions: Homo sapiens
Description: Antiproliferative activity against human Huh-7 cells measured after 24 to 48 hrs by MTT assay

[4] = Metabolic stability in liver microsomes (unknown origin) assessed as half life; assay type: ADME, Microsome
[5] = Antiproliferative activity against human L02 cells measured after 24 to 48 hrs by MTT assay; assay type: toxicity, cell-based
BaF3 [6] = assay: cells; conditions: Mus musculus
Description: Antiproliferative activity against mouse BaF3 cells harbouring ETV6-FGFR4-V550L mutant measured after 24 to 48 hrs by MTT assay

Hep 3B2 = assay: Antiproliferative activity against human Hep3B cells measured after 24 to 48 hrs by MTT assay; assay type: functional, cell-based
HepG2 = assay: Antiproliferative activity against human HepG2 cells measured after 24 to 48 hrs by MTT assay; assay type: functional, cell-based
Huh-7 [7] = assay: Inhibition of colony formation in human Huh-7 cells assessed as reduction in number of colonies at 270 nM measured for 12 days; assay type: functional, cell-based; conditions: time 12.0 day
BaF3 [8] = assay: cells; conditions: Mus musculus; remark: listed apart in the source
Description: Antiproliferative activity against mouse BaF3 cells harbouring ETV6-FGFR4-N535K mutant measured after 24 to 48 hrs by MTT assay

Fibroblast growth factor receptor 1, sequence (P11362 whole entry): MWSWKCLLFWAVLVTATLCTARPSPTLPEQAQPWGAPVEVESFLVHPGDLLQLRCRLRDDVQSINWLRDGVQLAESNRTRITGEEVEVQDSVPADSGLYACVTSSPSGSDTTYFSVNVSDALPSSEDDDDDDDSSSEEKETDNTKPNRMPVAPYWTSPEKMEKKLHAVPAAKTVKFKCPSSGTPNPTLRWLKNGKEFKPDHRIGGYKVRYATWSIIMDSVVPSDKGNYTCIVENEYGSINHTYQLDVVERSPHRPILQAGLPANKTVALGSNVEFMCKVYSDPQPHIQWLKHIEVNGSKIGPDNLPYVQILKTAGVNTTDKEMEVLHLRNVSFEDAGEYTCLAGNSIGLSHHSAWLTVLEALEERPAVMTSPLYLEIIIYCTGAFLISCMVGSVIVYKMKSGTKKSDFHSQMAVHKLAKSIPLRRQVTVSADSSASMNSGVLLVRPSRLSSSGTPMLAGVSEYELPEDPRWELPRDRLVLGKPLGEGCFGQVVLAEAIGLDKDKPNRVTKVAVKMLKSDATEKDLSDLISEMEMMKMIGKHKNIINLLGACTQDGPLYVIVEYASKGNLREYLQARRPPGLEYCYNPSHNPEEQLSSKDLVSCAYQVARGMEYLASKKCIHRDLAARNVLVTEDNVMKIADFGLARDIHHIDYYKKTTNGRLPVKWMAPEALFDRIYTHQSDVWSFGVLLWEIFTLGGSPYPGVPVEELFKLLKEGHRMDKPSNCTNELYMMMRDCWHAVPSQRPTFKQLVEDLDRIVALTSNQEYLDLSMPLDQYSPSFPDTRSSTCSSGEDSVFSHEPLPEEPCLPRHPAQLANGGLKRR

Row | Structure (SMILES) | IC50 [1] | IC50 [2] | IC50 (Huh-7 [3]) | also measured
1 | C=CC(=O)Nc1ccccc1-c1n[nH]c2ccc(OC(C)c3c(F)cncc3F)cc12 (stereo not drawn) | > 3000 nM | 42 nM | 1270 nM | 
2 | C=CC(=O)Nc1ccccc1-c1n[nH]c2ccc(OCc3ccccn3)cc12 |  | 481 nM | > 3000 nM | 
3 | C=CC(=O)Nc1cccc(-c2n[nH]c3ccc(O[C@H](C)c4c(Cl)cncc4Cl)cc23)c1 | > 3000 nM | 1200 nM | 2440 nM | 
4 | C=CC(=O)Nc1ccccc1-c1n[nH]c2ccc(OCc3ccncc3)cc12 |  | 243 nM | > 3000 nM | 
5 | C=CC(=O)Nc1cc2c(cc1-c1n[nH]c3ccc(O[C@H](C)c4c(Cl)cncc4Cl)cc13)CN(CCOC)CC2 | > 3000 nM | 9.7 nM | 753 nM | 
6 | C=CC(=O)Nc1ccccc1-c1n[nH]c2ccc(O[C@@H](C)c3c(Cl)cncc3Cl)cc12 |  |  | > 3000 nM | 
7 | C=CC(=O)Nc1ccccc1-c1n[nH]c2ccc(OCc3cccnc3)cc12 | > 3000 nM | 83 nM | > 3000 nM | 
8 | C=CC(=O)N[C@H]1CCOC[C@H]1Nc1ncc2cc(-c3c(Cl)c(OC)cc(OC)c3Cl)ccc2n1 [FISOGATINIB] | 1030 nM | 3.9 nM |  | IC50 [5]: > 10000 nM; IC50 (Hep 3B2): 46 nM; IC50 (HepG2): 4430 nM; inhibition (Huh-7 [7]): Active; IC50 (BaF3 [6]): 396 nM; IC50 (BaF3 [8]): 528 nM
9 | C=CC(=O)Nc1ccccc1-c1n[nH]c2ccc(OCc3c(Cl)cccc3Cl)cc12 |  | 764 nM | > 3000 nM | 
10 | C=CC(=O)Nc1cc2c(cc1-c1n[nH]c3ccc(O[C@H](C)c4c(Cl)cncc4Cl)cc13)CN(C(=O)OC(C)(C)C)C2 | > 3000 nM |  | 859 nM | 
11 | C=CC(=O)Nc1ccccc1-c1n[nH]c2ccc(OCc3c(Cl)cncc3Cl)cc12 | > 3000 nM | 27 nM | 754 nM | 
12 | C=CC(=O)Nc1ccccc1-c1n[nH]c2ccc(OC(C)c3c(Cl)cccc3Cl)cc12 (stereo not drawn) |  | 252 nM | > 3000 nM | 
13 | C=CC(=O)Nc1ccccc1-c1n[nH]c2ccc(OC(C)c3ccncc3)cc12 (stereo not drawn) | > 3000 nM | 169 nM | > 3000 nM | 

More lines, main results first:

Row | IC50 [1] | IC50 [2] | IC50 (Huh-7 [3]) | Structure (SMILES) | also measured
14 | > 3000 nM | 3.1 nM | 132 nM | C=CC(=O)Nc1cc2c(cc1-c1n[nH]c3ccc(O[C@H](C)c4c(Cl)cncc4Cl)cc13)CN(C)CC2 | 
15 | > 3000 nM | 2.5 nM | 54 nM | C=CC(=O)Nc1cc2c(cc1-c1n[nH]c3ccc(O[C@H](C)c4c(Cl)cncc4Cl)cc13)CCN(CCOC)C2 | 
16 | > 3000 nM | 1.9 nM | 67 nM | C=CC(=O)Nc1cc2c(cc1-c1n[nH]c3ccc(O[C@H](C)c4c(Cl)cncc4Cl)cc13)CN(CCO)C2 | 
17 | > 3000 nM |  | 80 nM | C=CC(=O)Nc1ccccc1-c1n[nH]c2ccc(O[C@H](C)c3c(Cl)cncc3Cl)cc12 | 
18 | > 3000 nM | 3.5 nM | 190 nM | C=CC(=O)Nc1cc(F)ccc1-c1n[nH]c2ccc(O[C@H](C)c3c(Cl)cncc3Cl)cc12 | 
19 | > 3000 nM | 2.5 nM | 20 nM | C=CC(=O)Nc1ccc(N2CCOCC2)cc1-c1n[nH]c2ccc(O[C@H](C)c3c(Cl)cncc3Cl)cc12 | half-life [4]: 2.73 min; IC50 [5]: > 10000 nM; IC50 (BaF3 [6]): 3 nM
20 | > 3000 nM | 2.6 nM | 30 nM | C=CC(=O)Nc1cc2c(cc1-c1n[nH]c3ccc(O[C@H](C)c4c(Cl)cncc4Cl)cc13)CCN(CCO)C2 | half-life [4]: 3.04 min; IC50 [5]: > 10000 nM; IC50 (BaF3 [6]): 1 nM
21 | > 3000 nM | 1.8 nM | 12 nM | C=CC(=O)Nc1cc(N2CCN(C)CC2)ccc1-c1n[nH]c2ccc(O[C@H](C)c3c(Cl)cncc3Cl)cc12 | half-life [4]: 3.8 min; IC50 [5]: 3940 nM; IC50 (BaF3 [6]): 2 nM
22 | > 3000 nM | 3.2 nM | 324 nM | C=CC(=O)Nc1ccc(F)cc1-c1n[nH]c2ccc(O[C@H](C)c3c(Cl)cncc3Cl)cc12 | 
23 | > 3000 nM |  | 221 nM | C=CC(=O)Nc1ccccc1-c1n[nH]c2ccc(OC(C)c3c(Cl)cncc3Cl)cc12 (racemic) | 
24 | > 3000 nM | 3.5 nM | 48 nM | C=CC(=O)Nc1cc2c(cc1-c1n[nH]c3ccc(O[C@H](C)c4c(Cl)cncc4Cl)cc13)CN(S(C)(=O)=O)C2 | 
25 | > 3000 nM | 6.2 nM | 275 nM | C=CC(=O)Nc1cc2c(cc1-c1n[nH]c3ccc(O[C@H](C)c4c(Cl)cncc4Cl)cc13)CN(CCO)CC2 | 
26 | > 3000 nM | 2.1 nM | 15 nM | C=CC(=O)Nc1ccc(N2CCN(C)CC2)cc1-c1n[nH]c2ccc(O[C@H](C)c3c(Cl)cncc3Cl)cc12 | half-life [4]: 2.41 min; IC50 [5]: 4280 nM; IC50 (BaF3 [6]): 1 nM
27 | > 3000 nM | 2.7 nM | 50 nM | C=CC(=O)Nc1cc2c(cc1-c1n[nH]c3ccc(O[C@H](C)c4c(Cl)cncc4Cl)cc13)CN(C)C2 | 
28 | > 3000 nM | 3.2 nM | 193 nM | C=CC(=O)Nc1cc2c(cc1-c1n[nH]c3ccc(O[C@H](C)c4c(Cl)cncc4Cl)cc13)CN(CCOC)C2 | 
29 | > 3000 nM | 2.2 nM | 17 nM | C=CC(=O)Nc1cc(N2CCOCC2)ccc1-c1n[nH]c2ccc(O[C@H](C)c3c(Cl)cncc3Cl)cc12 | half-life [4]: 1.37 min; IC50 [5]: > 10000 nM; IC50 (BaF3 [6]): 2 nM
